{
  "source": "patent US9550742B2",
  "about": "“11-OXO-10,11-dihydrodibenzo[B,F][1,4]thiazepine S-oxide derivatives and their use as dopamine D2 receptor antagonists” (The United States of America, as Represented by the …, priority 2013, dated 2017)",
  "key": {"D3 receptor": {"molecular_target": "T1, D3 receptor (Rattus norvegicus, UniProt P19020)", "T1 construct": "from tissue; host or cells: live rats (whole animal)", "T1 sequence (P19020 whole entry)": "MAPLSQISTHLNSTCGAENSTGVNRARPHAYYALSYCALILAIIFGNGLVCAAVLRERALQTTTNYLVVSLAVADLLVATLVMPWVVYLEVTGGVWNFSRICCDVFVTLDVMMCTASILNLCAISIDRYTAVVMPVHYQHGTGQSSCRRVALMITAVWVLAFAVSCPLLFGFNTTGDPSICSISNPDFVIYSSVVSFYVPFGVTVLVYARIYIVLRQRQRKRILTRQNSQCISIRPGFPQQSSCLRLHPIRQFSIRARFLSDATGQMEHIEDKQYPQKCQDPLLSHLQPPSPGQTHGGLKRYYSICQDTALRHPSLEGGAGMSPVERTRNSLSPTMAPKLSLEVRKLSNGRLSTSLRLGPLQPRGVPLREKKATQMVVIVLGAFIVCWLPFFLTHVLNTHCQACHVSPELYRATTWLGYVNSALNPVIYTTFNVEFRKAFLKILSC", "assay": "Pramipexole-induced yawning", "format": "in vivo", "conditions": "rats, 3.2 and 10 mg/kg", "source_text": "Pramipexole, an agonist of the D3 receptor, produces yawning when administered subcutaneously. This response is known to be mediated by the D3 receptor and not the D2 receptor (Collins, Id.).\n(§1) The sumanirole-induced hypothermia and pramipexole-induced yawning experiments show ML321 can act selectively to block the D2 receptor without blocking the D3 receptor when administered to living animals. Thus, the D2 selectivity identified using cellular assays can also be seen in living animals."}, "GABAA": {"test_system": "GABAA", "assay": "Affinity profile panel: GABAA", "conditions": "inhibition of binding"}, "D2 receptor [1]": {"molecular_target": "T2, D2 receptor (Rattus norvegicus, UniProt P61169)", "T2 construct": "from tissue; host or cells: live rats (whole animal)", "T2 sequence (P61169 whole entry)": "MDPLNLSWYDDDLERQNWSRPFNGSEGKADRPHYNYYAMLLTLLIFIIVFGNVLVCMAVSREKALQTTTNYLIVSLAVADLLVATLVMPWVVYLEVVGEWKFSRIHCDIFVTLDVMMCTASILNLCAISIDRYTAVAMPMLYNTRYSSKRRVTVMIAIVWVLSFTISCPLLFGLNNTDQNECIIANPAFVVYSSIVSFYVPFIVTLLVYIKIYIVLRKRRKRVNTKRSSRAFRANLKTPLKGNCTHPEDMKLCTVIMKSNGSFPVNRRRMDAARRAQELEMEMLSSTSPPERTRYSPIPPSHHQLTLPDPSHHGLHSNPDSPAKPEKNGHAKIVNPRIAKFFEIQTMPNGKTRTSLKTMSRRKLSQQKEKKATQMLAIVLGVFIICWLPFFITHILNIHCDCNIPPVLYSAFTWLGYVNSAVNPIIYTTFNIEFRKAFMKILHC", "assay": "Sumanirole-induced hypothermia", "format": "in vivo", "conditions": "rats, subcutaneously", "source_text": "These experiments test the ability of a compound of Formula I, ML321, to affect physiological or behavioral responses in rats that are mediated by D2 or D3 receptors. Sumanirole, an agonist of the D2 receptor, produces hypothermia in rats when administered subcutaneously. This response is known to be mediated by the D2 receptor and not the D3 receptor (Collins et al., Psychopharmacology (Berl). 2007, 193(2):159-70).\nas §1"}, "M5": {"molecular_target": "M5 (Homo sapiens, UniProt P08912)", "sequence (P08912 whole entry)": "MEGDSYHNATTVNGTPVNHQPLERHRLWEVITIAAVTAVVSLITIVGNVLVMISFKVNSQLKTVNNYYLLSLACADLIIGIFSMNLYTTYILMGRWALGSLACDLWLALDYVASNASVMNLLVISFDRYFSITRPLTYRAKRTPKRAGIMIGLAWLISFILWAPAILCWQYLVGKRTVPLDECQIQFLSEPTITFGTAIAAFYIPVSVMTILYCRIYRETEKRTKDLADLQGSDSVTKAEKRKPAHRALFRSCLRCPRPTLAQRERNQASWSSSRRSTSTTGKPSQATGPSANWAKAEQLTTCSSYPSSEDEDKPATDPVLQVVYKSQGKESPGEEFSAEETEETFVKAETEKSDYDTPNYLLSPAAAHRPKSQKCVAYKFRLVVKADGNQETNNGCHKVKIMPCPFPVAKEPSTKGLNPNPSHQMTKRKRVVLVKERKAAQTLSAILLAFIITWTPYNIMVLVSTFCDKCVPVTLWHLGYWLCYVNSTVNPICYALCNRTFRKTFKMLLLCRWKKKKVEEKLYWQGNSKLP", "assay": "Affinity profile panel: M5", "conditions": "inhibition of binding"}, "Alpha1A": {"molecular_target": "Alpha1A (Homo sapiens, UniProt P35348)", "sequence (P35348 whole entry)": "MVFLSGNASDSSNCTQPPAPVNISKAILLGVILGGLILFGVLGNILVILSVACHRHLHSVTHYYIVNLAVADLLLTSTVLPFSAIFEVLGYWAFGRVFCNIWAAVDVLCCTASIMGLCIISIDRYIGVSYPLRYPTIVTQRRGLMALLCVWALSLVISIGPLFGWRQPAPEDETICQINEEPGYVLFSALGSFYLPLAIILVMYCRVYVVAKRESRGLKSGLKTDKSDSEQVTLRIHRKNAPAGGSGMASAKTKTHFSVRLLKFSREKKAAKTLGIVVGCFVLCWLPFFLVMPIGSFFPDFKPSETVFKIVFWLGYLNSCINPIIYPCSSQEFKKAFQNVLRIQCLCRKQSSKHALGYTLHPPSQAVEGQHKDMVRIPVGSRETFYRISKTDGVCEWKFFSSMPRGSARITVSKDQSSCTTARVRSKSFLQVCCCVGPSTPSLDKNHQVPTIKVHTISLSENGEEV", "assay": "Affinity profile panel: Alpha1A", "conditions": "inhibition of binding"}, "5-HT6": {"molecular_target": "5-HT6 (Homo sapiens, UniProt P50406)", "assay": "Affinity profile panel: 5-HT6", "conditions": "inhibition of binding"}, "D4": {"molecular_target": "D4 (Homo sapiens, UniProt P21917)", "sequence (P21917 whole entry)": "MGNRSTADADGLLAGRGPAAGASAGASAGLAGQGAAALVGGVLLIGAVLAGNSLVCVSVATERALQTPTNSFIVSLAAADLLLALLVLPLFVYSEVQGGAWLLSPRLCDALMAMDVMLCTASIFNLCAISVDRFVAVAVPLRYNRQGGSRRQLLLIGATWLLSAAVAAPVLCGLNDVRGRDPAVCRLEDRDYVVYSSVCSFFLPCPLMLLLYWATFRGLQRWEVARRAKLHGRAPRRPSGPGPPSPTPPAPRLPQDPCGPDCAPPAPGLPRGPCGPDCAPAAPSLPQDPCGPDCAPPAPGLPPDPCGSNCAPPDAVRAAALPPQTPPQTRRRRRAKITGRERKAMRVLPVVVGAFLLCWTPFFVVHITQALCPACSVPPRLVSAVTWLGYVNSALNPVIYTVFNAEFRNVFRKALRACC", "assay": "Affinity profile panel: D4", "conditions": "inhibition of binding"}, "D2 receptor [2]": {"test_system": "D2 receptor", "assay": "PET study, displacement of the D2 receptor label [^11C]SV-130", "format": "in vivo, monkeys", "conditions": "i.v.", "method": "Positron emission tomography (PET) was performed using live monkeys. A radioactive PET probe ([^11C]SV-130) for the D2 receptor was injected intravenously. PET images of coronal sections of the brain were obtained at the level of the caudate putamen. […] Monkeys were treated (i.v.) with either 1 mg/kg or 5 mg/kg ML321, a compound of Formula I (compound 55, Example 61).\nThe time course of PET ([^11C]SV-130) labelling of the caudate, putamen, and cerebellumum in the absence or presence of either 1 mg/kg or 5 mg/kg ML321 was plotted. […] When ML321 was injected i.v. the [^11C]SV-130 signal decreased gradually from about 20 minutes through the 100 minute observation period. The [^11C]SV-130 signal decrease was particularly dose dependent in the putamen graph.\nThe significance of the PET [^11C]SV-130 labelling data are two-fold. […] Second, the experiments provide direct evidence that ML321 can occupy D2 receptors in the CNS in living animals and completely block D2 receptors at a reasonable pharmacological dose."}, "D5": {"molecular_target": "D5 (Homo sapiens, UniProt P21918)", "assay": "Affinity profile panel: D5", "conditions": "inhibition of binding"}, "[3]": {"molecular_target": "D3 human dopamine receptors (Homo sapiens, UniProt P35462)", "assay": "D3 binding assay ([^3H]methylspiperone, HEK293 membranes)", "method": "Cells were cultured in Dulbecco's modified Eagle's Medium containing 10% FBS, 1,000 units/mL Penicillin, 1,000 mg/mL Streptomycin, 100 mM Sodium Pyruvate, 1 μg/mL Gentamicin, and […] G418. All cells were maintained at 37° C. in 5% CO2 and 90% humidity. For radioligand binding assays, cells were removed mechanically using calcium and magnesium-free Earle's Balanced Salt Solution (EBSS(−)). Intact cells were collected by centrifugation and then lysed with 5 mM Tris-HCl and 5 mM MgCl2 at pH 7.4 in a glass homogenizer. […] Membrane preparations were incubated for 90 min at room temperature with various concentrations of radioligand in a reaction volume of 250 μL EBSS containing 200 mM sodium metabisulfite. […] Bound ligand was separated from unbound by filtration through GF/C filters using a PerkinElmer cell harvester with ice cold EBSS (4 washes) and quantified on a Top-count (PerkinElmer) after addition of scintillation solution. […] In order to determine the affinity of a given compound for a receptor type, competition-binding assays were performed. […] Reactions were incubated, terminated, and quantified as indicated above."}, "Beta1": {"molecular_target": "Beta1 (Homo sapiens, UniProt P08588)", "assay": "Affinity profile panel: Beta1", "conditions": "inhibition of binding"}, "NET": {"molecular_target": "NET (Homo sapiens, UniProt P23975)", "assay": "Affinity profile panel: NET", "conditions": "inhibition of binding", "source_text": "(§2) Antipsychotic drugs (depending on the specific drug) typically interact with a range of serotonergic, adrenergic, histaminergic, and muscarinic receptors."}, "Alpha2C": {"molecular_target": "Alpha2C (Homo sapiens, UniProt P18825)", "assay": "Affinity profile panel: Alpha2C", "conditions": "inhibition of binding"}, "5-HT1E": {"molecular_target": "5-HT1E (Homo sapiens, UniProt P28566)", "assay": "Affinity profile panel: 5-HT1E", "conditions": "inhibition of binding"}, "5-HT7": {"molecular_target": "5-HT7 (Homo sapiens, UniProt P34969)", "sequence (P34969 whole entry, species assumed)": "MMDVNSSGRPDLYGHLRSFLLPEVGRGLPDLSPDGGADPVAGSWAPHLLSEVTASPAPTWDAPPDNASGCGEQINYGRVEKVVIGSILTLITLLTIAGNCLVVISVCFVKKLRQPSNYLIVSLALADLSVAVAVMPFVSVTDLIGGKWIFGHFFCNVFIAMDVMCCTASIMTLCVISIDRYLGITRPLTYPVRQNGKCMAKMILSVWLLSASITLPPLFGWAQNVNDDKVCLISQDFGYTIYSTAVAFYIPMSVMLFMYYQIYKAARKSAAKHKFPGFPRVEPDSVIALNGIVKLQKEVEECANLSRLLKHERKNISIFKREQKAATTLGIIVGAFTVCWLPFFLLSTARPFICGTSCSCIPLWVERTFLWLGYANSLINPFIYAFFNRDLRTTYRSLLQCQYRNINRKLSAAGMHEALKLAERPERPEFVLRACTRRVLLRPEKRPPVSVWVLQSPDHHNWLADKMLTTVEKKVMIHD", "assay": "Affinity profile panel: 5-HT7", "conditions": "inhibition of binding"}, "5-HT5A": {"molecular_target": "5-HT5A (Homo sapiens, UniProt P47898)", "sequence (P47898 whole entry, species assumed)": "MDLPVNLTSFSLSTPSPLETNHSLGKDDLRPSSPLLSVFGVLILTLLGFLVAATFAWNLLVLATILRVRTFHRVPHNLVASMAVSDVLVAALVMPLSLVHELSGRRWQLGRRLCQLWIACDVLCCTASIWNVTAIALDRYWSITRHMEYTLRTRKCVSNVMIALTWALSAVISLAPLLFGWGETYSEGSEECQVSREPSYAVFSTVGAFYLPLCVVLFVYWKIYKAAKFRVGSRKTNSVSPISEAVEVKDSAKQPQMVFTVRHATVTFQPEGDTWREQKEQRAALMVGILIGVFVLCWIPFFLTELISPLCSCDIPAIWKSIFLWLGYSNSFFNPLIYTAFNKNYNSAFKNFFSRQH", "assay": "Affinity profile panel: 5-HT5A", "conditions": "inhibition of binding"}, "DOR": {"molecular_target": "DOR (Homo sapiens, UniProt P41143)", "sequence (P41143 whole entry)": "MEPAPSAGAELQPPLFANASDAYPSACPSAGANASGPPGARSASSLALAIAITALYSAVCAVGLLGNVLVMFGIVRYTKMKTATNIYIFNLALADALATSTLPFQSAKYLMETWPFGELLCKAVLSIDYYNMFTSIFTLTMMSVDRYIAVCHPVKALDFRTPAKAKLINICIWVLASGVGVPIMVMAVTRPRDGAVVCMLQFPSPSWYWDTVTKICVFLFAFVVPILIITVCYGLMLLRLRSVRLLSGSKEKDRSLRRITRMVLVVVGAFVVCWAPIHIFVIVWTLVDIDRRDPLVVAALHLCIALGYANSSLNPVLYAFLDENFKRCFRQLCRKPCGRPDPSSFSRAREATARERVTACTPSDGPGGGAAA", "assay": "Affinity profile panel: DOR", "conditions": "inhibition of binding"}, "M2": {"molecular_target": "M2 (Homo sapiens, UniProt P08172)", "assay": "Affinity profile panel: M2", "conditions": "inhibition of binding"}, "BZP Rat Brain Site": {"test_system": "BZP Rat Brain Site", "assay": "Affinity profile panel: BZP Rat Brain Site", "conditions": "inhibition of binding"}, "M1": {"molecular_target": "M1 (Homo sapiens, UniProt P11229)", "sequence (P11229 whole entry)": "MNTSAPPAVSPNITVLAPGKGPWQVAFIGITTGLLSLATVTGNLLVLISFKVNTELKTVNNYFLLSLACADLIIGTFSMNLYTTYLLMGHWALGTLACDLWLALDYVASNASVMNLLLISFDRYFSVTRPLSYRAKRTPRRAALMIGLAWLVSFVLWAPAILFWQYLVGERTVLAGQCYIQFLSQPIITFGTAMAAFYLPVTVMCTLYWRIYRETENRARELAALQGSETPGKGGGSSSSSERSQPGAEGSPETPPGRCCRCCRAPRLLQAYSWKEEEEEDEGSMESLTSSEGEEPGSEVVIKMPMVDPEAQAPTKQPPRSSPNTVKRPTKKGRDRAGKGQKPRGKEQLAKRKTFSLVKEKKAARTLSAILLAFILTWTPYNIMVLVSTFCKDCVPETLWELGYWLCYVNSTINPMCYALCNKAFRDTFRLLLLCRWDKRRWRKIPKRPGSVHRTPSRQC", "assay": "Affinity profile panel: M1", "conditions": "inhibition of binding"}, "Beta3": {"molecular_target": "Beta3 (Homo sapiens, UniProt P13945)", "sequence (P13945 whole entry)": "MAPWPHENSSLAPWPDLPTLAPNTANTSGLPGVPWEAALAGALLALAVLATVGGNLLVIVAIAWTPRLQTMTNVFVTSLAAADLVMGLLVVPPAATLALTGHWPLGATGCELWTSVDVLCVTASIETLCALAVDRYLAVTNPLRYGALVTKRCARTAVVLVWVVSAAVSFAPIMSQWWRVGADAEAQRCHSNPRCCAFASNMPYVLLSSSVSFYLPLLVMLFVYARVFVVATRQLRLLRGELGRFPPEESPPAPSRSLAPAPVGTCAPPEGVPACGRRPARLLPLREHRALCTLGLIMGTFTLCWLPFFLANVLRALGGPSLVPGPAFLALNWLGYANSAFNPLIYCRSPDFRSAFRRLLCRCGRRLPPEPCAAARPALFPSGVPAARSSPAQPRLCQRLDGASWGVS", "assay": "Affinity profile panel: Beta3", "conditions": "inhibition of binding"}, "Sigma 1": {"molecular_target": "Sigma 1 (Homo sapiens, UniProt Q99720)", "sequence (Q99720 whole entry)": "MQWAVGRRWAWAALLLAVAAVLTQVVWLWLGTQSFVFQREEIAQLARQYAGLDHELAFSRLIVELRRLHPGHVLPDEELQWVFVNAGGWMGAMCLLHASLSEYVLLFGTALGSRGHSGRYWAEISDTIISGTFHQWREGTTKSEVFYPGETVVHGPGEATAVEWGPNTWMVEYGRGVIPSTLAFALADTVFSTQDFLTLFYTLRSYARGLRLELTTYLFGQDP", "assay": "Affinity profile panel: Sigma 1", "conditions": "inhibition of binding"}, "H2": {"molecular_target": "H2 (Homo sapiens, UniProt P25021)", "assay": "Affinity profile panel: H2", "conditions": "inhibition of binding"}, "5-HT2C": {"molecular_target": "5-HT2C (Homo sapiens, UniProt P28335)", "assay": "Affinity profile panel: 5-HT2C", "conditions": "inhibition of binding", "source_text": "as §2"}, "5-HT2A": {"molecular_target": "5-HT2A (Homo sapiens, UniProt P28223)", "assay": "Affinity profile panel: 5-HT2A", "conditions": "inhibition of binding"}},
  "data": [
    {"smiles": "CN1C(=O)c2ccccc2[S@+]([O-])c2ccc(C(=O)NCCc3cccs3)cc21", "note": "[Compound 55, 10-Methyl-11-oxo-N-(2-(thiophen-2-yl)ethyl)-10,11-dihydrodibenzo[b,f][1,4]thiazepine-8-carboxamide 5-(S)-oxide]", "values": [
      {"measurement": "Effect on pramipexole-induced yawning", "setting": "D3 receptor", "value": "no effect on pramipexole-induced yawning"},
      {"measurement": "Inhibition (%) GABAA", "setting": "GABAA", "value": 10.6, "unit": "%"},
      {"measurement": "Block of sumanirole-induced hypothermia response", "setting": "D2 receptor [1]; 10 mg/kg", "value": "completely blocked"},
      {"measurement": "Block of sumanirole-induced hypothermia response", "setting": "D2 receptor [1]; 3.2 and 10 mg/kg", "value": "significantly and dose-dependently block the sumanirole-induced hypothermia response"},
      {"measurement": "Inhibition (%) M5", "setting": "M5", "value": "−6.5", "unit": "%"},
      {"measurement": "Inhibition (%) Alpha1A", "setting": "Alpha1A", "value": "−13.4", "unit": "%"},
      {"measurement": "Inhibition (%) 5-HT6", "setting": "5-HT6", "value": "−15.6", "unit": "%"},
      {"measurement": "Inhibition (%) D4", "setting": "D4", "value": 32.2, "unit": "%"},
      {"measurement": "Blocking of [^11C]SV-130 D2 PET probe binding in the caudate putamen", "setting": "D2 receptor [2]; monkeys, 1 mg/kg or 5 mg/kg, images 20 to 100 minutes post injection", "value": "blocks the binding of the D2 receptor PET probe in the caudate putamen in a dose-dependent fashion"},
      {"measurement": "Blocking of [^11C]SV-130 labeling", "setting": "D2 receptor [2]; monkeys, 5 mg/kg", "value": "almost completely blocked"},
      {"measurement": "Blood-brain barrier crossing", "setting": "D2 receptor [2]; primates, PET evidence", "value": "can cross the blood-brain barrier in primates"},
      {"measurement": "Inhibition (%) D5", "setting": "D5", "value": "−8.5", "unit": "%"},
      {"measurement": "Ki", "setting": "[3]", "value": 2.9, "unit": "µM"},
      {"measurement": "Inhibition (%) Beta1", "setting": "Beta1", "value": 12.6, "unit": "%"},
      {"measurement": "Inhibition (%) NET", "setting": "NET", "value": 8.9, "unit": "%"},
      {"measurement": "Inhibition (%) Alpha2C", "setting": "Alpha2C", "value": 20.9, "unit": "%"},
      {"measurement": "Inhibition (%) 5-HT1E", "setting": "5-HT1E", "value": 9.9, "unit": "%"},
      {"measurement": "Inhibition (%) 5-HT7", "setting": "5-HT7", "value": 53.3, "unit": "%"},
      {"measurement": "Inhibition (%) 5-HT5A", "setting": "5-HT5A", "value": 9.5, "unit": "%"},
      {"measurement": "Inhibition (%) DOR", "setting": "DOR", "value": "−23.6", "unit": "%"},
      {"measurement": "Inhibition (%) M2", "setting": "M2", "value": "−1.7", "unit": "%"},
      {"measurement": "Inhibition (%) BZP Rat Brain Site", "setting": "BZP Rat Brain Site", "value": 0.5, "unit": "%"},
      {"measurement": "Inhibition (%) M1", "setting": "M1", "value": "−0.6", "unit": "%"},
      {"measurement": "Inhibition (%) Beta3", "setting": "Beta3", "value": 6.6, "unit": "%"},
      {"measurement": "Inhibition (%) Sigma 1", "setting": "Sigma 1", "value": 17.5, "unit": "%"},
      {"measurement": "Inhibition (%) H2", "setting": "H2", "value": "−9.2", "unit": "%"},
      {"measurement": "Inhibition (%) 5-HT2C", "setting": "5-HT2C", "value": 64.5, "unit": "%"},
      {"measurement": "Inhibition (%) 5-HT2A", "setting": "5-HT2A", "value": 46.3, "unit": "%"}
    ]}
  ]
}
